From PubChem BioAssay AID179 (DTP/NCI, 2004)
pEC50, pIC50: −log10 of the molar value. The source made the active and inactive calls.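 The calls were made as follows: active = compounds giving half or more protection of infected cells from virus-caused growth loss, again on retest; inactive = the rest.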

Test system: CEM cells HIV-1 protection, formazan growth assay
Experiment: NCI AIDS Antiviral Assay
Conditions: for pIC50: measured here: growth of uninfected CEM cells
How it was run: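 Five concentrations of each compound were applied to infected and uninfected human CEM cells. Protection from HIV-1 was judged from growth measured with a soluble formazan assay.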

## CN(/N=N/N(C)c1ccccc1)c1ccccc1
  pEC50: < 3.70
  pIC50: < 3.70

## O=S(=O)(F)c1cc(Cl)ccc1C[P+](c1ccccc1)(c1ccccc1)c1ccccc1
  pEC50: < 3.70
  pIC50: 4.19

## Clc1ccc(-c2nnc3n2NC(c2ccccc2)S3)c(Cl)c1 (stereo not given)
  pEC50: < 4.07
  pIC50: 4.16

## CCOC(=O)C1(C(=O)OCC)C[C@H](C)[C@](C)(O)C1
  pEC50: < 3.70
  pIC50: < 3.70

## NC(=O)C1=CN(Cc2ccc(F)cc2)c2ccccc2C1S(=O)(=O)O (stereo not given)
  outcome: inactive
  pIC50: 3.61

## CCOC(=O)CCC(NC(=O)OCc1ccccc1)C(=O)NC(CCC(=O)OCC)C(=O)NC(CCC(=O)OCC)C(=O)NNC(=O)OC(C)(C)C (stereo not given)
  pEC50: < 3.70
  pIC50: < 3.70

## N#Cc1ccc(NC(=O)C(CC(=O)OCc2ccccc2)NC(=O)OCc2ccccc2)cc1 (stereo not given)
  pEC50: < 3.70
  pIC50: < 3.70

## C[C@]12CCNC(=O)C=C1CC[C@@H]1C2CC[C@@]2(C)C1CC[C@@H]2O (stereo not given in full)
  outcome: inactive

## N#Cc1ccccc1/C=N/O
  pEC50: < 4.45
  pIC50: < 4.45

## O=c1[nH]nc(Nc2ccccc2)c2nnn(Cc3ccccc3)c12
  outcome: inactive

## Cc1ccc(S(=O)(=O)Sc2ccccc2)cc1
  pEC50: < 3.87
  pIC50: 4.66

## Cc1ccc(C(=O)c2ccccc2C(=O)O)cc1C
  pEC50: < 3.70
  pIC50: < 3.70

## CCSc1nc2n(c(=S)n1)CCN2C
  pEC50: < 3.15
  pIC50: 3.86

## c1ccc2nc3cc4c(cc3nc2c1)NC12CCCCC1CC1=C(CCCC1)N42 (stereo not given)
  pEC50: < 3.70
  pIC50: 5.49

## CC1=CCC(=O)[C@]2(C)C(CC(=O)O)[C@]3(C)C4=C(C)C(c5ccoc5)C[C@@H]4O[C@@H]3[C@H](O)[C@@H]12 (stereo not given in full)
  pEC50: < 3.26
  pIC50: < 3.26

## COC1OC2COC(c3ccccc3)OC2C(OS(=O)(=O)c2ccc(C)cc2)C1OS(=O)(=O)c1ccc(C)cc1 (stereo not given)
  outcome: inactive

## CCC1(CC)C(=O)N(C(=O)c2ccccc2)N(C(=O)c2ccc(Cl)cc2)C1=O
  pEC50: < 3.70
  pIC50: 4.30

## COc1ccc(-c2cc(-c3cc(C)cc(Cl)c3O)nc3[nH]c(=S)[nH]c(=S)c23)cc1
  pEC50: < 3.70
  pIC50: 5.38

## O=C1C(c2ccc(Br)cc2)=[N+]([O-])c2ccccc21
  outcome: inactive

## C=C1[C@@H](OC(C)=O)[C@H]2[C@@H](OC(C)=O)[C@@](C)(OC(C)=O)C[C@]2(OC(C)=O)C(=O)[C@@H](C)/C=C/C(C)(C)C(=O)C[C@H]1OC(C)=O
  pEC50: < 3.70
  pIC50: 4.14

## Cc1ccc(-n2nnc3c(NNc4ccccc4)n[nH]c(=O)c32)cc1
  pEC50: < 3.70
  pIC50: 4.59

## CC(C)C1NC(=O)CC(c2ccccc2)N(N=O)C1c1ccccc1 (stereo not given)
  pEC50: < 4.11
  pIC50: < 4.11

## Cc1cccc(Nc2cn(CCOc3ccccc3)c(=O)[nH]c2=O)c1
  pEC50: < 3.70
  pIC50: 4.56

## C=C(C)[C@@H]1CC[C@]2(COC(=O)CC3(CC(=O)O)CCCC3)CC[C@]3(C)[C@H](CC[C@@H]4[C@@]5(C)CC[C@H](OC(=O)CC6(CC(=O)O)CCCC6)C(C)(C)[C@@H]5CC[C@]43C)[C@@H]12
  pEC50: < 3.70
  pIC50: 5.23

## CC1(CO)C(O)CCC2(C)C1CCC1CC3CC12CCC3(O)CO (stereo not given)
  pEC50: < 3.56
  pIC50: 6.40

## CCCN(CCC)C(=O)Cc1c2n(c3ccccc13)Cc1ccccc1-2
  pEC50: < 4.82
  pIC50: 5.23

## COC(=O)C(CC12CC3CC(CC(C3)C1)C2)NC(=O)C(N)CC(=O)O (stereo not given)
  pEC50: < 3.70
  pIC50: < 3.70

## COC(=O)/C=C1/C2CC3CC(C2)C(O)C1C3 (stereo not given)
  outcome: inactive

## Nc1cc(I)c2cccnc2c1O
  pEC50: < 3.68
  pIC50: 5.90

## CCCCCOC(=S)S
  pEC50: < 3.70
  pIC50: < 3.70

## O=C1NC(=O)C2C1N(Cc1ccccc1)C(=O)N2Cc1ccccc1 (stereo not given)
  pEC50: < 3.97
  pIC50: < 3.97

## Nc1cc(Cl)cc2cc(Cl)cnc12
  pEC50: < 3.70
  pIC50: 3.93

## NC(C(=O)OC(=O)c1ccccc1)C(=O)OC(=O)c1ccccc1
  pEC50: < 3.70
  pIC50: 4.01

## O=C(Nc1nnc(-c2ccccc2)s1)c1cc(=O)c2cc([N+](=O)[O-])ccc2o1
  pEC50: < 3.70
  pIC50: < 3.70

## Cc1[nH]n(-c2ncc(C(=O)O)c(=O)[nH]2)c(=O)c1CCO
  pEC50: < 3.70
  pIC50: < 3.70

## COc1cccc2c(Nc3ccc(S(=O)(=O)NC(C)=O)cc3)c3ccc([N+](=O)[O-])cc3nc12
  pEC50: < 3.85
  pIC50: 4.02

## Cc1ccc(S(=O)(=O)OC2=C/C(=N\c3onc(C)c3C)c3ccccc3C2=O)cc1
  pEC50: < 3.70
  pIC50: 5.51

## O=c1[nH]c2ccccc2c(O)c1Cc1ccccc1
  pEC50: < 3.70
  pIC50: < 3.70

## C[C@@]1(CI)OC(=O)N2CCC[C@H]21
  pEC50: < 3.05
  pIC50: < 3.05

## C/C(CN1C(=O)c2ccccc2C1=O)=N\NS(=O)(=O)c1ccccc1
  pEC50: < 4.69
  pIC50: < 4.69

## O=C1[C@H]2CCCC[C@H]2C(=O)N1N1C(=O)[C@H]2CCCC[C@H]2C1=O
  outcome: inactive

## CCOC(=O)C1=C(O)c2c(OC)ccc(OC)c2C(=O)C1=O
  pEC50: < 3.37
  pIC50: < 3.37

## CCN(CC)CC(=O)Nc1ccc2c(c1)C(=O)c1ccc(NC(=O)CN(CC)CC)cc1C2=O
  pEC50: < 4.00
  pIC50: 5.68

## CCOC(=O)Nc1cc2c(c(N)n1)N=C(CN(C)c1ccccc1)CN2
  pEC50: < 4.46
  pIC50: 7.13

## COc1cc([C@@H]2c3cc(O)c(OC)cc3C=C(C(N)=O)[C@H]2C(N)=O)ccc1O
  pEC50: < 6.70
  pIC50: 7.99

## CC1CN(c2ccc(Cl)cc2)CC(C)OC(=O)O1 (stereo not given)
  outcome: inactive

## Cc1ccc(-c2nc3scc(C)n3n2)cc1
  pEC50: < 3.70
  pIC50: 3.74

## CN1Cc2ccccc2C2(COc3ccccc3C2=O)C1 (stereo not given)
  outcome: inactive

## COC1OC2COc3ccccc3OC2C(NC#N)C1OC (stereo not given)
  pEC50: < 3.84
  pIC50: 4.54

## COc1ccc(C(=O)CC(=O)C(=O)Nc2ccc(C)c(C)c2)cc1
  pEC50: < 4.65
  pIC50: < 4.65

## CCOC(=O)C(Cc1cccc2ccccc12)S(=O)(=O)c1ccc(C)cc1 (stereo not given)
  pEC50: < 4.18
  pIC50: 4.73

## COc1ccc(-c2c(C#N)c(-c3ccc(C)cc3)n(NS(=O)(=O)c3ccccc3)c(=O)c2C#N)cc1
  pEC50: < 3.70
  pIC50: 4.53

## Cc1ccc(S(=O)(=O)OCC2CC[C@]3(C)C4CCC5(C)C(CCC5[C@H](C)CCC(=O)O)[C@@H]4CC[C@@H]3C2)cc1 (stereo not given in full)
  pEC50: < 5.31
  pIC50: < 5.31

## COc1cc(N=Nc2c(O)c3ccccc3[nH]c2=O)c(OC)cc1N=Nc1ccccc1
  pEC50: < 4.00
  pIC50: < 4.00

## COc1ccc(C(=O)Nc2ccc(S(=O)(=O)c3ccc(NC(=O)c4ccccc4SSc4ccccc4C(=O)Nc4ccc(S(=O)(=O)c5ccc(NC(=O)c6ccc(OC)cc6)cc5)cc4)cc3)cc2)cc1
  pEC50: 4.78
  pIC50: 3.82

## CCc1nc(N)nc(C(=O)NCCNC(=O)c2nc(N)nc(CC)c2C)c1C
  pEC50: < 4.17
  pIC50: < 4.17

## Cc1ccc2c(c1-c1c(C)ccc3c1C(=O)c1ccccc1C3=O)C(=O)c1ccccc1C2=O
  pEC50: < 3.70
  pIC50: 5.11

## COc1cc(CSc2ccc(O)cc2)cc(O)c1O
  pEC50: < 3.90
  pIC50: 4.64

## COC(=O)C1CC2C=CC1N(C(=O)OCc1ccccc1)C2 (stereo not given)
  pEC50: < 3.70
  pIC50: 3.77

## O=C(Nc1ccccc1)c1cc(C(=O)Nc2ccccc2)[nH]n1
  outcome: inactive

## Cc1cn(C2CC(N=[N+]=[N-])C(COC(=O)C3CNC(=O)N3)O2)c(=O)[nH]c1=O (stereo not given)
  outcome: active
  pIC50: 4.03

## C=C(C)CC(C)(c1cc2ccccc2n1C)N1CCOCC1 (stereo not given)
  pEC50: < 4.00
  pIC50: 4.19

## CC(c1cccc2ccccc12)/[N+]([O-])=C/c1ccccc1 (stereo not given)
  pEC50: < 3.74
  pIC50: 3.79

## c1ccc(Cc2ccc(SSc3ccc(Cc4ccccc4)cc3)cc2)cc1
  pEC50: < 3.70
  pIC50: 4.57

## O=C1C2CC3OC3CC2C(=O)N1CN1C(=O)C2CC3OC3CC2C1=O (stereo not given)
  pEC50: < 3.70
  pIC50: < 3.70

## CCOC(=O)CC1(C)SCCN1C(=O)OCC (stereo not given)
  pEC50: < 3.70
  pIC50: < 3.70

## COc1cc(/C=C2\SC(=S)N(C=C3C(=O)NC(=O)NC3=O)C2=O)cc(OC)c1OC
  pEC50: < 3.70
  pIC50: 4.63

## CN1CC(C)(C)C(=O)c2ccccc21
  pEC50: < 3.70
  pIC50: < 3.70

## O=S(=O)(O)CS(=O)(=O)O
  pEC50: < 3.70
  pIC50: < 3.70

## CSc1c(C(C)=O)c(O)n(-c2ccc(C)cc2)c(=O)c1C#N
  pEC50: < 3.70
  pIC50: 4.20

## COc1ccc(N=C2C(=Nc3ccc(OC)cc3)N(c3ccc(N(C)C)cc3)C(=S)N2c2ccc(OC)cc2)cc1
  pEC50: < 4.70
  pIC50: 6.16

## O=C1c2ccccc2C(=C2c3ccccc3C(=O)c3ccccc32)c2ccccc21
  outcome: inactive

## CC1(C(=O)O)CCC[C@@]2(C)C1CC[C@@]1(C)c3cocc3CCC21 (stereo not given in full)
  outcome: inactive

## COc1cc(-c2nn3c(=O)n(-c4ccc(Cl)cc4)c(=O)nc3s2)cc(OC)c1OC
  pEC50: < 6.09
  pIC50: < 6.09

## O=C(NC1CCCCC1)/C(=C\c1ccccc1)NC(=O)c1ccccc1
  pEC50: < 3.70
  pIC50: < 3.70

## CCOP(=O)(OCC)/C(C#N)=C/c1ccc[nH]1
  pEC50: < 3.01
  pIC50: 3.24

## O=CC1(C(O)C2SCCCS2)SCCCS1 (stereo not given)
  pEC50: < 4.00
  pIC50: 5.26

## C1=C2CN3CCC45c6ccccc6N6CCC(OC1)C(C2CC34)C65 (stereo not given)
  pEC50: < 3.11
  pIC50: 3.52

## COc1cc2c(c(Oc3ccc(C)cc3)c1)CN(C)CC2
  pEC50: < 3.70
  pIC50: 4.12

## CC1(C)CN=C(Nc2ccc(F)c(F)c2)S1
  pEC50: < 3.70
  pIC50: < 3.70

## COc1ccc2ccccc2c1C1OC(=O)c2ccccc21 (stereo not given)
  pEC50: < 4.33
  pIC50: 4.54

## O=C1CCC2(c3ccc(Cl)cc3)Nc3ccccc3N12 (stereo not given)
  outcome: inactive

## CNc1nc2n(CCO)c(-c3ccccc3)c(-c3ccccc3)nc-2c(=O)n1
  pEC50: < 4.30
  pIC50: 4.58

## Cc1cccc(/C=N/NC(=S)N2CCCC2)n1
  pEC50: < 4.00
  pIC50: 6.94

## O=C=NCCCCCCN1C(=O)N2C(c3ccccc3)N(CCCCCCN=C=O)C(=O)N2C1c1ccccc1 (stereo not given)
  outcome: inactive

## O=C1c2ccccc2C(Br)(Br)c2ccccc21
  outcome: inactive

## CN1CC(O)C(C(=O)NC23CC4CC(CC(C4)C2)C3)C1 (stereo not given)
  pEC50: < 3.49
  pIC50: 3.63
